23 compounds from patent US8703805B2 (Exelixis Patent Company LLC, priority 2005, dated 2014) can be followed below.

Broadly, the EC50 is the concentration at which the effect is half-maximal. The low end stands for an effect from little substance, the high end for a need for much substance.

For the test, the system named is LXRα and/or LXRβ. Briefly: LXR/LXRE co-transfection assay (luciferase reporter, CV-1 cells). The class given is cell-based, human. The settings on record: IC50 or EC50 for LXR (LXRα and/or LXRβ, not distinguished), tested as described in Example 109, CV-1 cells. An excerpt: To measure the ability of compounds to activate or inhibit the transcriptional activity of LXR in a cell based assay, the co-transfection assay was used. It has been shown that LXR functions as a heterodimer with RXR. For the co-transfection assay; expression plasmids for LXR and RXR are introduced via transient transfection into mammalian cells along with a luciferase reporter plasmid that contains one copy of a DNA sequence that is bound by LXR-RXR heterodimers (LXRE; Willy, P. ad. 1995). Treatment of transfected cells with an LXR agonist increases the transcriptional activity of LXR, which is measured by an increase in luciferase activity.
CV-1 African Green Monkey Kidney Cells Co-transfection expression plasmids, comprising full-length LXRα (pCMX-h LXRα, LXRβ (pCMX-hLXRβ), or RXRα (pCMX-RXR), reporter plasmid (LXREx1-Tk-Luciferase), and control (pCMX-Galactosidase expression vector) (Willey et al. Genes & Development 91033-1045 (1995)). Transfection reagent such as FuGENE6 (Roche). 1× Cell lysis buffer (1% Triton X 100 (IT Baker X200-07), 10% Glycerol (JT Baker M778-07), 5 mM Ditriotreitol (Quantum Bioprobe DTT03; add fresh before lysing), 1 mM EGTA (Ethylene Glycol-bis(B-Amino ethyl ether)-N,N,N′,N′-Tetracetic Acid) (Sigma E-4378), 25 mM Tricine (ICN 807420) pH 7.8) 1× Luciferase assay buffer (pH at 7.8) (0.73 mM ATP, 22.3 mM Tricine, 0.11 mM EDTA, 33.3 mM DTT) 1× Luciferrin/CoA (11 mM Luciferin, 3.05 mM Coenzyme A, 10 mM HEPES) Preparation of Screening Reagents
CV-1 cells were prepared 24 hours prior to the experiment by plating them into T-175 flasks or 500 cm^2 dishes in order to achieve 70-80% confluency on the day of the transfection. The number of cells to be transfected was determined by the number of plates to be screened. each 384 well plate requires 1.92×10^6 cells or 5000 cells per well. DNA Transfection Reagent was prepared by mixing the required plasmid DNAs with a cationic lipid transfection reagent FuGENE6 (Roche) by following the instructions provided with the reagents. Optimal DNA amounts were determined empirically per cell line and size of vessel to be transfected. 10-12 mL of media was added to the DNA Transfection Reagent and this mixture was added to the cells after aspirating media from the T175 cm^2 flask. Cells were then incubated at least 5 hours at 37° C. to prepare screening cells.
Luciferase assay reagent was prepared by combining before use (per 10 mL): […], 0.54 mL of 1× Luciferrin/CoA; 0.54 mL of 0.2 M Magnesium sulfate
Assay plates were prepared by dispensing 5 μL of compound per well of a 384 well plate to achieve final compound concentration of 10 μM and no more than 1% DMSO. Media was removed from the screening cells, the cells trypsinized, harvested cells by centrifugation, counted, and plated at a density of approximately 5000 cells per well in the 384 well assay plate prepared above in a volume of about 45 μL. Assay plates containing both compounds and screening cells (50 μL in total volume) were incubated for 20 hours at 37° C.
After incubation with compounds, media was removed from the cells and lysis buffer (30 μL/well) added. After 30 minutes at ambient temperature, luciferase assay buffer (30 μL/well) was added and the assay plates read on a luminometer (PE Biosystems Northstar reader with on-board injectors, or equivalent). Plates were read immediately after addition of luciferase assay buffer.
The LXR/LXRE co-transfection assay can be used to establish the EC50/IC50 values for potency and percent activity or inhibition for efficacy. Efficacy defines the activity of a compound relative to a high control ((N-(3-((4-fluorophenyl)-(naphthalene-2-sulfonyl)amino)propyl)-2,2-dimethylpropionamide)) or a low control (DMSO/vehicle). The dose response curves are generated from an 8 point curve with concentrations differing by ½ LOG units. each point represents the average of 4 wells of data from a 384 well plate. […]
A general note: In a reporter assay the amount or activity of a reporter protein is the signal.

For the compound `CC(C)(O)c1nn(-c2ccncc2Cl)c(-c2ccc(-c3cccc(S(C)(=O)=O)c3)s2)c1Cl` [Example 125, 2-(4-chloro-1-(3-chloropyridin-4-yl)-5-(5-(3-(methylsulfonyl)phenyl)thiophen-2-yl)-1H-pyrazol-3-yl)propan-2-ol], the half-maximal effective concentration (EC50) is less than 1000 nM.

`CC(C)(O)c1cc(-c2ccc(-c3cccc(S(C)(=O)=O)c3)s2)n(-c2c(Cl)cncc2Cl)n1` [Example 126, 2-(1-(3,5-dichloropyridin-4-yl)-5-(5-(3-(methylsulfonyl)phenyl)thiophen-2-yl)-1H-pyrazol-3-yl)propan-2-ol] returned an EC50 of less than 1000 nM.

`CC(C)(O)c1nn(-c2c(Cl)cncc2Cl)c(-c2ccc(-c3cccc(S(C)(=O)=O)c3)s2)c1Cl` [Example 127, 2-(4-chloro-1-(3,5-dichloropyridin-4-yl)-5-(5-(3-(methylsulfonyl)phenyl)thiophen-2-yl)-1H-pyrazol-3-yl)propan-2-ol]: the concentration giving a half-maximal response (EC50) was less than 1000 nM.

`CC(C)(O)c1nn(-c2ccccc2Cl)c(-c2ccc(-c3cccc(S(C)(=O)=O)c3)cn2)c1Cl` [Example 128, 2-(4-chloro-1-(2-chlorophenyl)-5-(5-(3-(methylsulfonyl)phenyl)pyridin-2-yl)-1H-pyrazol-3-yl)propan-2-ol] showed a 50% effective concentration (EC50) of 1000 to 10000 nM.

`CC(C)(O)c1cc(-c2c(F)cccc2Cl)n(-c2ccc(-c3cccc(S(C)(=O)=O)c3)cc2Cl)n1` [Example 130, 2-(1-(3-chloro-3′-(methylsulfonyl)biphenyl-4-yl)-5-(2-chloro-6-fluorophenyl)-1H-pyrazol-3-yl)propan-2-ol] displayed a 50% effective concentration (EC50) of less than 1000 nM.

Turning to `CC(C)(O)c1cc(-c2cccc(F)c2F)n(-c2ccc(-c3cccc(S(C)(=O)=O)c3)cc2Cl)n1` [Example 131, 2-(1-(3-chloro-3′-(methylsulfonyl)biphenyl-4-yl)-5-(2,3-difluorophenyl)-1H-pyrazol-3-yl)propan-2-ol], the EC50 is less than 1000 nM.

For `CC(C)(O)c1nn(-c2ccccc2Cl)c(-c2ccc(-c3cccc(S(C)(=O)=O)c3)nc2)c1Cl` [Example 132, 2-(4-chloro-1-(2-chlorophenyl)-5-(6-(3-(methylsulfonyl)phenyl)pyridin-3-yl)-1H-pyrazol-3-yl)propan-2-ol], the EC50 lay within 1000 to 10000 nM.

Consider `CC(C)(O)c1cc(-c2ccc(-c3cccc(S(C)(=O)=O)c3)cc2)n(-c2c(Cl)cccc2Cl)n1` [Example 133, 2-(1-(2,6-dichlorophenyl)-5-(3′-(methylsulfonyl)biphenyl-4-yl)-1H-pyrazol-3-yl)propan-2-ol], for which the EC50 was less than 1000 nM.

`COC(C)(C)c1cc(-c2ccc(-c3cccc(S(C)(=O)=O)c3)s2)n(-c2ccccc2Cl)n1` [Example 134, 1-(2-chlorophenyl)-3-(2-methoxypropan-2-yl)-5-(5-(3-(methylsulfonyl)phenyl)thiophen-2-yl)-1H-pyrazole] gave a concentration giving a half-maximal response (EC50) of less than 1000 nM.

The compound `CC(C)(O)c1cc(-c2cccc(Cl)c2Cl)n(-c2ccc(-c3cccc(S(C)(=O)=O)c3)cc2Cl)n1` [Example 135, 2-(1-(3-chloro-3′-(methylsulfonyl)biphenyl-4-yl)-5-(2,3-dichlorophenyl)-1H-pyrazol-3-yl)propan-2-ol] showed an EC50 of less than 1000 nM.

`Cc1cc(-c2cccc(S(C)(=O)=O)c2)ccc1-n1nc(C(C)(C)O)cc1-c1cccc(Cl)c1Cl` [Example 136, 2-(5-(2,3-dichlorophenyl)-1-(3-methyl-3′-(methylsulfonyl)biphenyl-4-yl)1H-pyrazol-3-yl)propan-2-ol] gave an EC50 of less than 1000 nM.

Take `Cc1cc(-c2cccc(S(C)(=O)=O)c2)sc1-c1cc(C(C)(C)O)nn1-c1c(Cl)cccc1Cl` [Example 137, 2-(1-(2,6-dichlorophenyl)-5-(3-methyl-5-(3-(methylsulfonyl)phenyl)thiophen-2-yl)-1H-pyrazol-3-yl)propan-2-ol]: the EC50 is less than 1000 nM.

In the case of `CC(C)(O)c1nn(-c2c(Cl)cccc2Cl)c(-c2ccc(-c3cccc(S(C)(=O)=O)c3)cc2)c1Cl` [Example 138, 2-(4-chloro-1-(2,6-dichlorophenyl)-5-(3′-(methylsulfonyl)biphenyl-4-yl)-1H-pyrazol-3-yl)propan-2-ol], the EC50 is less than 1000 nM.

With `Cc1cc(-c2cccc(S(C)(=O)=O)c2)ccc1-n1nc(C(C)(C)O)cc1-c1ccccc1C(F)(F)F` [Example 139, 2-(1-(3-methyl-3′-(methylsulfonyl)biphenyl-4-yl)-5-(2-(trifluoromethyl)phenyl)-1H-pyrazol-3-yl)propan-2-ol], the EC50 was less than 1000 nM.

Take `CC(C)(O)c1cc(-c2ccccc2C(F)(F)F)n(-c2ccc(-c3cccc(S(C)(=O)=O)c3)cc2Cl)n1` [Example 140, 2-(1-(3-chloro-3′-(methylsulfonyl)biphenyl-4-yl)-5-(2-(trifluoromethyl)phenyl)-1H-pyrazol-3-yl)propan-2-ol]: the 50% effective concentration (EC50) was less than 1000 nM.

`CC(C)(O)c1cc(-c2ccc(-c3cccc(S(C)(=O)=O)c3)cc2Cl)n(-c2c(Cl)cccc2Cl)n1` [Example 142, 2-(5-(3-chloro-3′-(methylsulfonyl)biphenyl-4-yl)-1-(2,6-dichlorophenyl)-1H-pyrazol-3-yl)propan-2-ol] came in with an EC50 of less than 1000 nM.

With `CS(=O)(=O)c1cccc(-c2ccc(-c3cc(C(=O)N4CCCC4)nn3-c3c(Cl)cccc3Cl)c(Cl)c2)c1` [Example 143, (5-(3-chloro-3′-(methylsulfonyl)biphenyl-4-yl)-1-(2,6-dichlorophenyl)-1H-pyrazol-3-yl)(pyrrolidin-1-yl)methanone], the EC50 is less than 1000 nM.

Compound `CC(C)(O)c1nn(-c2c(Cl)cccc2Cl)c(-c2ccc(-c3cccc(S(C)(=O)=O)c3)cc2Cl)c1Cl` [Example 144, 2-(4-chloro-5-(3-chloro-3′-(methylsulfonyl)biphenyl-4-yl)-1-(2,6-dichlorophenyl)-1H-pyrazol-3-yl)propan-2-ol] displayed an EC50 of less than 1000 nM.

Compound `Cc1cc(-c2cccc(S(C)(=O)=O)c2)cnc1-n1nc(C(C)(C)O)c(Cl)c1-c1ccccc1Cl` [Example 145, 2-(4-chloro-5-(2-chlorophenyl)-1-(3-methyl-5-(3-(methylsulfonyl)phenyl)pyridin-2-yl)-1H-pyrazol-3-yl)propan-2-ol] registered an EC50 of less than 1000 nM.

Turning to `Cc1cc(-c2cccc(S(C)(=O)=O)c2)cc(C)c1-n1nc(C(C)(C)O)cc1-c1ccccc1Cl` [Example 146, 2-(5-(2-chlorophenyl)-1-(3,5-dimethyl-3′-(methylsulfonyl)biphenyl-4-yl)-1H-pyrazol-3-yl)propan-2-ol], the EC50 was less than 1000 nM.

For `Cc1cc(-c2cccc(S(C)(=O)=O)c2)ccc1-c1cc(C(C)(C)O)nn1-c1c(Cl)cccc1Cl` [Example 147, 2-(1-(2,6-dichlorophenyl)-5-(3-methyl-3′-(methylsulfonyl)biphenyl-4-yl)-1H-pyrazol-3-yl)propan-2-ol], the EC50 is less than 1000 nM.

Take `Cc1cc(-c2cccc(S(C)(=O)=O)c2)ccc1-c1cc(C(=O)N2CCCC2)nn1-c1c(Cl)cccc1Cl` [Example 148, (1-(2,6-dichlorophenyl)-5-(3-methyl-3′-(methylsulfonyl)biphenyl-4-yl)-1H-pyrazol-3-yl)(pyrrolidin-1-yl)methanone]: the EC50 was less than 1000 nM.

`Cc1cc(-c2cccc(S(C)(=O)=O)c2)ccc1-n1nc(C(C)(C)O)c(Cl)c1-c1c(F)cccc1Cl` [Example 149, 2-(4-chloro-5-(2-chloro-6-fluorophenyl)-1-(3-methyl-3′-(methylsulfonyl)biphenyl-4-yl)-1H-pyrazol-3-yl)propan-2-ol] had an EC50 of less than 1000 nM.
